Values of other authors in publication PMC12444507 (ACS Omega, 2025).

Test system: nirmatrelvir-resistant E166 V-carrying SARS-CoV-2^E166V
Conditions: cited from earlier work

## CC(C)(C)[C@H](NC(=O)C(F)(F)F)C(=O)N1C[C@H]2[C@@H]([C@H]1C(=O)N[C@@H](C[C@@H]1CCNC1=O)C(=O)c1nc3cc(F)ccc3s1)C2(C)C [TKB272 (8)]
  antiviral activity against SARS-CoV-2^E166V: substantial antiviral activity
